According to ChEMBL document CHEMBL6083270, “Synthesis and biological evaluation of 4,7,9-trisubstituted benzoxazepines as antileishmanial agents” (Bioorg Med Chem Lett, 2024):

Key:
Leishmania mexicana = experiment: Antileishmanial activity against Leishmania mexicana intracellular amastigotes; type: functional, organism-based
[1] = Cytotoxicity against mouse J774.A1 cells assessed as reduction in cell viability; type: toxicity, cell-based
[2] = Selectivity index, ratio of EC50 for mouse J774.A1 cells to EC50 for Leishmania mexicana intracellular amastigotes; type: toxicity, cell-based; conditions: read-out: Ratio EC50

SMILES	EC50 (Leishmania mexicana) [µM]	EC50 [1] [µM]	selectivity ratio [2]
Cc1ccc(-c2cc3c(c(OCC4CCCN(C)C4)c2)OCCN(C(=O)C2CC2)C3)s1 (configuration not stated)	10.2		
Cc1ccc(-c2cc(O)c3c(c2)CN(C(=O)Cc2c(C)noc2C)CCO3)s1	22.8		
Cc1ccc(-c2cc3c(c(OCC4CCCN(C)C4)c2)OCCNC3)s1 (configuration not stated)	3.6		
Cc1ccc(-c2cc3c(c(OCC4CCCN(C)C4)c2)OCCN(C(=O)C2CCC2)C3)s1 (configuration not stated)	4.8		
Cc1noc(C)c1CC(=O)N1CCOc2c(cc(-c3cccc(Cl)c3)cc2OCC2CCCN(C)C2)C1 (configuration not stated)	0.9	3.2	3.6
Cc1noc(C)c1CC(=O)N1CCOc2c(cc(-c3cccc(F)c3)cc2OCC2CCCN(C)C2)C1 (configuration not stated)	2.6	11.5	4.4
Cc1noc(C)c1CC(=O)N1CCOc2c(cc(-c3ccc(Cl)cc3)cc2OCC2CCCN(C)C2)C1 (configuration not stated)	1.6	5.5	3.4
Cc1noc(C)c1CC(=O)N1CCOc2c(O)cc(-c3cccc(F)c3)cc2C1	29.5		
Cc1ccc(-c2cc3c(c(OCC4CCCN(C)C4)c2)OCCN(C(=O)Cc2ccc(F)cc2)C3)s1 (configuration not stated)	4.9		
Cc1ccc(-c2cc3c(c(OCC4CCCN(C)C4)c2)OCCN(C(=O)Cc2c(C)noc2C)C3)s1 (configuration not stated)	2.3	4.7	2
Cc1noc(C)c1CC(=O)N1CCOc2c(cc(-c3cccnc3)cc2OCC2CCCN(C)C2)C1 (configuration not stated)	29	> 50	
Cc1noc(C)c1CC(=O)N1CCOc2c(cc(-c3ccn(C)n3)cc2OCC2CCCN(C)C2)C1 (configuration not stated)	16.5	> 50	
Cc1noc(C)c1CC(=O)N1CCOc2c(O)cc(-c3cccc(Cl)c3)cc2C1	15.5		
Cc1cccc(CN2CCOc3c(cc(-c4ccc(C)s4)cc3OCC3CCCN(C)C3)C2)n1 (configuration not stated)	5.3		
CN1CCCC(COc2cc(-c3cccc(Cl)c3)cc3c2OCCNC3)C1 (configuration not stated)	2.2		
COc1ccc(C(=O)N2CCOc3c(cc(-c4ccc(C)s4)cc3OCC3CCCN(C)C3)C2)c(OC)c1 (configuration not stated)	3.9		
Cc1noc(C)c1CC(=O)N1CCOc2c(cc(CC3CC3)cc2OCC2CCCN(C)C2)C1 (configuration not stated)		> 50	
Cc1noc(C)c1CC(=O)N1CCOc2c(cc(Br)cc2OCC2CCCN(C)C2)C1 (configuration not stated)		> 50	
COc1cccc(C(=O)N2CCOc3c(cc(-c4ccc(C)s4)cc3OCC3CCCN(C)C3)C2)c1 (configuration not stated)	4.4		
CC1=NN(C)CC1c1cc2c(c(OCC3CCCN(C)C3)c1)OCCN(C(=O)Cc1c(C)noc1C)C2 (configuration not stated)	37.5	> 50	
CN1CCCC(COc2cc(-c3cccc(Cl)c3)cc3c2OCCN(C(=O)Cc2ccsc2)C3)C1 (configuration not stated)	11.3		
Cc1noc(C)c1CC(=O)N1CCOc2c(cc(-c3ccccc3Cl)cc2OCC2CCCN(C)C2)C1 (configuration not stated)	2.9	14.7	5.1
COc1ccccc1C(=O)N1CCOc2c(cc(-c3ccc(C)s3)cc2OCC2CCCN(C)C2)C1 (configuration not stated)	6.1		
Cc1ccc(-c2cc3c(c(OCC4CCCN(C)C4)c2)OCCN(C(=O)c2cccc(Cn4cccn4)c2)C3)s1 (configuration not stated)	4.6		
CN1CCCC(COc2cc(-c3cccc(Cl)c3)cc3c2OCCN(C(=O)c2cccs2)C3)C1 (configuration not stated)	4.6		
Cc1ccc(-c2cc3c(c(OCC4CCCN(C)C4)c2)OCCN(Cc2cn(C)nc2C)C3)s1 (configuration not stated)	5.8		
Cc1noc(C)c1CC(=O)N1CCOc2c(cc(-c3ccnn3C)cc2OCC2CCCN(C)C2)C1 (configuration not stated)	25	> 50	
CCCCCCCCCCCCCCCCOP(=O)([O-])OCC[N+](C)(C)C [MILTEFOSINE]	3.2		
